Assay: cn = amount concentration of the nth substance listed, in mol/dm3
Conditions: 101 kPa, Liquid, Alternating current cell with electrodes

CCOS(=O)(=O)[O-].CCn1cc[n+](C)c1 [1-ethyl-3-methylimidazolium ethyl sulfate] + ClCCl
molar conductivity [S·m2/mol]
Conditions | 273.15 K | 278.15 K | 283.15 K | 288.15 K | 293.15 K | 298.15 K | 303.15 K | 308.15 K
c1 = 0.5399 | 0.0004064 | 0.0004194 | 0.0004324 | 0.0004454 | 0.0004554 | 0.000462 | 0.000471 | 0.0004771
c1 = 0.8656 | 0.0003364 | 0.0003471 | 0.0003579 | 0.0003684 | 0.0003768 | 0.0003829 | 0.0003904 | 0.0003958
c1 = 1.152 | 0.0003033 | 0.0003131 | 0.0003228 | 0.0003322 | 0.0003398 | 0.0003455 | 0.0003521 | 0.0003571
c1 = 1.504 | 0.0002764 | 0.0002855 | 0.0002943 | 0.0003028 | 0.0003098 | 0.0003152 | 0.0003212 | 0.0003258
c1 = 1.808 | 0.0002603 | 0.0002689 | 0.0002772 | 0.0002852 | 0.0002918 | 0.0002971 | 0.0003029 | 0.0003073
c1 = 2.099 | 0.0002493 | 0.0002575 | 0.0002653 | 0.000273 | 0.0002794 | 0.0002845 | 0.00029 | 0.0002942
c1 = 2.376 | 0.0002409 | 0.0002489 | 0.0002566 | 0.000264 | 0.0002702 | 0.0002753 | 0.0002806 | 0.0002849
c1 = 2.723 | 0.0002334 | 0.0002412 | 0.0002486 | 0.0002557 | 0.0002618 | 0.0002668 | 0.000272 | 0.0002762
c1 = 3.074 | 0.0002276 | 0.0002352 | 0.0002425 | 0.0002494 | 0.0002554 | 0.0002604 | 0.0002655 | 0.0002698
c1 = 3.333 | 0.000224 | 0.0002315 | 0.0002387 | 0.0002455 | 0.0002514 | 0.0002564 | 0.0002615 | 0.0002657
c1 = 3.607 | 0.0002213 | 0.0002288 | 0.0002359 | 0.0002427 | 0.0002488 | 0.0002538 | 0.0002588 | 0.000263
c1 = 3.931 | 0.000219 | 0.0002264 | 0.0002334 | 0.0002401 | 0.0002459 | 0.000251 | 0.000256 | 0.0002601
